# Reference: patent US11767298B2, “Substituted benzimidazoles as inhibitors of transforming growth factor-β kinase” (Duke University, priority 2016, dated 2023)
# Where “and” joins values, the source holds several entries; their conditions need not be identical. Equal values may be shown once. Read-outs that look alike come from different tables or passages of the source.
# How the values were obtained:
# GFP-PfPK9 = GFP-PfPK9 (Plasmodium falciparum, UniProt Q8IEG4); assay: ATP-competitive binding assay (ATP-sepharose pull-down, FLECS)
# GFP-PfPK9, sequence (Q8IEG4 entry or part of it): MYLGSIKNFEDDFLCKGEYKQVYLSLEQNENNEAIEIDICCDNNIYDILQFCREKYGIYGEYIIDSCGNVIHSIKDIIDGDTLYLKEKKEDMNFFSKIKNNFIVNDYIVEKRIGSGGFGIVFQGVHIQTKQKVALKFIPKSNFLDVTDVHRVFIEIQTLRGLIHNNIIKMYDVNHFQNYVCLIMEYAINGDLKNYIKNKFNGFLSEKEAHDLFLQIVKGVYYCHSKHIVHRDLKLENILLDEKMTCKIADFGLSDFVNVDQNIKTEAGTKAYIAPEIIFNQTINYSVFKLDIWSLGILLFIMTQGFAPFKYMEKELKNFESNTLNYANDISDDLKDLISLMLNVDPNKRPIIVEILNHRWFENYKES
# Description: Primary small-molecule screen. A small-molecule screen was performed similar to a previously reported fluorescence linked enzyme chemoproteomic strategy (FLECS). Briefly, HEK293-GFP-PfPK9 cells were grown in 182-cm^2 tissue culture flasks (Genesee Scientific) and harvested at ˜80% cell confluency. Before assays the culture medium was aspirated, cells were rinsed with ice cold PBS and then they were removed with a cell scraper. Cells were pelleted by centrifugation (2,000 rpm, 4° C., 2 min) and immediately lysed for assays. The pellet was suspended in buffer A (25 mM HEPES, pH 7.4, 150 mM NaCl, 60 mM MgCl2, 1 mM DTT) with 1 μM microcystin, 0.1% Triton X-100 plus a Roche Complete protease inhibitor tablet and then placed on ice for 30 min to facilitate lysis. The supernatant was collected after centrifugation (4,300 rpm, 4° C., 5 min) and used in subsequent screening and titrations experiments. For screening, the supernatant was added to ATP-sepharose beads (1:1) and incubated with agitation at 4° C. for at least 1 hr to allow binding. Following this incubation, the mixture was centrifuged, the ATP resin was washed with 9 column volumes of buffer A with 1 M NaCl and then 9 column volumes of buffer A. The ATP-sepharose medium was reconstituted as a 1:1 slurry with buffer A and then added to 96-well filter plates (50 μL/well) (Corning #3505) using a multichannel pipette (Rainin). The filter plate was on top of black 96-well catch plates (Corning #3915). An ATP dilution series (1-200 mM) was added to each plate as a positive control and DMSO was the negative control. Compounds and controls were all added to 50 μL per well in buffer A. For screening, compounds were tested in singlicate at 500 μM. The final DMSO concentration in every well was 5%. The fluorescence intensity in each well was measured on an EnVision system. Data analyses of screens were carried out in EXCEL (Microsoft, Corp.) and actives were identified as 2×background signal.
# All screening positives that were verified with Western blot analysis were purchased from Enamine or Vitas-M laboratory. The purity of compounds 1-5 (shown below) was verified by high-resolution MS (Agilent). Compounds were tested in 8-point dose-response (0-500 μM) experiments in duplicate, essential as described above. The fluorescence intensity in each well was measured using an EnVision system. Dose-response analysis was performed with GraphPad Prism to acquire EC50 values. Determined EC50 values were used to calculate the observed PfPK9 Kd and reported values are the average of 2-3 independent experiments.
# Stable cell line generation. The P. falciparum PK9 gene (PlasmoDB accession #PF3D7_1315100) was cloned into the pEGFP-C1 mammalian expression vector (Clontech) in frame with a […] GFP tag. For screening, HEK293 cells were transfected with the resulting PfPK9-pEGFP-C1 vector to generate HEK293-GFP-PfPK9 expressing cells using X-tremeGENE HP transfection reagent (Roche) per the manufacturer instructions. Briefly, the culture medium was replaced at 48 hours post-transfection with medium supplemented with 1 mg/mL G418 sulfate (Life Technologies) to select for stably transfected cells. Following stable cell selection, fluorescence activated cell sorting (FACS) was used to enrich for GFP-PfPK9 expressing cells. Subsequently, FACS sorted HEK293-GFP-PfPK9 cells were cultured with medium supplemented with 0.5 mg/mL G418 sulfate for all following experiments. Protein expression was verified by Western blot analysis probing for anti-GFP and by fluorescence intensity using an EnVision (PerkinElmer) system.
# All 14 positive molecules were also tested for their binding affinity to PfPK9 using an optimized ATP-competitive binding assay. EC50 values ranging from low μM to low mM were observed and these EC50 values were used to derive dissociation constants as described previously. […]
# TAK1-TAB1 = target: T1, TAK1-TAB1 (Homo sapiens, UniProt O43318); assay: TAK1-TAB1 kinase assay ([32P]-ATP); assay type: biochemical; conditions: compared to 206 (FIG. 14)
# T1 sequence (O43318 with tags, fused parts or gaps limits assumed): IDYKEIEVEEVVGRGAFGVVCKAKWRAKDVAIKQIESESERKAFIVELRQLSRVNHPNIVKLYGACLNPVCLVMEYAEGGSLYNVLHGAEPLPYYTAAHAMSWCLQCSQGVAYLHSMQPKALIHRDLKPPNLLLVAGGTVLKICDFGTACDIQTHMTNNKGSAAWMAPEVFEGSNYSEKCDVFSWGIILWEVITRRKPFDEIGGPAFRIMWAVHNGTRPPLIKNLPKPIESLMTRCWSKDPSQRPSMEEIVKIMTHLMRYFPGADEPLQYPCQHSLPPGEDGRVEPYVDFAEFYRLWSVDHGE
# Description: Kinase Assay. […] In brief, TAK1-TAB1 (50 ng/well) was incubated with 5 μM ATP containing radiolabeled [^32P]-ATP in the presence of 300 μM substrate peptide ([…]) in a final volume of 40 μl in the presence of buffer (containing 50 mM Tris pH 7.5, 0.1 mM EGTA, 0.1% β-Mercaptoethanol, 10 mM magnesium acetate, 0.5 mM MnCl) and indicated compounds. The reaction was let go for 10 min and stopped with 10 μl concentrated H3PO4. The remaining activity was measured using a scintillation counter. Dose-response curves were repeated 3 times. For kinetic mechanistic studies, experiments were repeated two times and averaged.
# A challenge in designing chemical biology probes lies in choosing an appropriate ligand for a protein target and developing chemistry that allows attachment of a linker without disrupting activity of the ligand. […] The focus was on modifying the aminobenzimidazole moiety.
# P. berghei [1] = assay: Liver stage parasite load, luciferase-expressing P. berghei in HepG2 cells; assay type: cell-based, Plasmodium berghei ANKA; conditions: HepG2 host cells
# Description: (§1) Cell-based anti-Plasmodium assays. For liver stage assays, 15,000 HepG2 or 8,000 Huh7 cells/well were added to 384-well microtiter plates using a multichannel pipette (Rainin). After 2 hours at 37° C., compounds (0-100 μM) were added to cells in duplicate or triplicate in a final concentration of 1% DMSO. DMSO was used as the negative control. Following compound incubation at 37° C. for ˜1 hr, harvested luciferase-expressing P. berghei ANKA sporozoites were added to the plates at a density of 3,000 sporozoites/well. P. berghei ANKA sporozoites were obtained from harvesting the salivary glands of infected A. stephensi mosquitoes. The plates were spun for 10 min at 1,000 rpm, and then incubated at 37° C. for ˜45 hrs. […] After ˜45 hours at 37° C., liver cell viability was assessed using CellTiter-Fluor (Promega) and then parasite load was determined using Bright-Glo (Promega). The relative fluorescence and luminescence signal intensity of each well was evaluated with an EnVision System. The luminescence signal in the presence of compounds was normalized to the negative control (DMSO). Dose-response analysis was performed with GraphPad Prism to yield the reported EC50 values.
# (§2) Anti-Plasmodium activity was evaluated in the parasite's liver stage using a previously reported high-throughput assay. In this assay, luciferase-expressing P. berghei (murine) parasites are used to infect human hepatoma cells (HepG2) and parasite load is assessed with a luminometer subsequent to evaluating HepG2 viability using a commercially available quantification kit that measures intracellular protease activity.
# (§3) Specifically, their ability to inhibit P. berghei infection in two human hepatoma cell lines (HepG2 and Huh7) as well as cytotoxicity against HepG2 and Huh7 cells was determined as described above. Liver cell cytotoxicity was evaluated with two different commercially available assays, one that tests for intracellular protease activity with a fluorescence reporter and another that relies on the luminescent detection of total ATP.
# Huh7 cells = assay: Huh7 cell viability / cytotoxicity; assay type: cell-based, human
# Description: as §1, with “After 2 hours at 37° C., compounds (0-100 μM) were added to cells in duplicate or triplicate in a final concentration of 1% DMSO.” left out
# as §3
# HepG2 cells = assay: HepG2 cell viability / cytotoxicity; assay type: cell-based, human
# Description: as §1, §2, §3
# P. berghei [2] = assay: Liver stage parasite load, luciferase-expressing P. berghei in Huh7 cells; assay type: cell-based, Plasmodium berghei ANKA; conditions: Huh7 host cells, read-out: IC50 Liver state (Huh7)
# Description: as §1, §3
# [3] = GFP-PfPK9, Kd calculated from EC50 of ATP pull-down dose-response, read-out: Kd, app
# [4] = Plasmodium berghei, HepG2, parasite load
# [5] = Plasmodium berghei, Huh-7, parasite load
activity / potency in TAK1 kinase assay (TAK1-TAB1),Structure (SMILES),Kd (GFP-PfPK9; [3]),IC50 (P. berghei [1]; [4]) [µM],IC50 (P. berghei [2]; [5]) [µM],also measured
did not show activity,NC(=O)c1cccc(C(=O)/N=c2\[nH]c3cc(Br)ccc3s2)c1 [HS-232],–,–,–,–
slight reduction in potency,CCCn1/c(=N/C(=O)c2cccc(C(N)=O)c2)[nH]c2ccc(/C=C/C(=O)O)cc21 [HS-233],–,–,–,–
slight reduction in potency,CCCn1/c(=N/C(=O)c2cccc(C(N)=O)c2)[nH]c2cc(/C=C/C(=O)O)ccc21 [HS-234],–,–,–,–
slight reduction in potency,CCCn1/c(=N/C(=O)c2cccc(C(N)=O)c2)[nH]c2cc(/C=C/C(=O)OC)ccc21 [HS-235],–,–,–,–

# More lines, now with the values behind:
Structure (SMILES),activity / potency in TAK1 kinase assay (TAK1-TAB1),Kd (GFP-PfPK9; [3]),IC50 (P. berghei [1]; [4]) [µM],IC50 (P. berghei [2]; [5]) [µM],also measured
"Nc1ncnc2c1ncn2[C@@H]1O[C@H](COP(=O)(O)OP(=O)(O)OP(=O)(O)O)[C@@H](O)[C@H]1O [ATP, reference compound]",–,–,–,–,"Kd (GFP-PfPK9; native substrate, read-out: apparent Kd of ATP for GFP-PfPK9): ~400 µM"
CCCn1c(NC(=O)c2nn(-c3ccccc3)cc2OC)nc2ccccc21 [compound 2],–,~7 µM and 7 µM,4.5,0.09,"cytotoxic effect on cell viability vs DMSO control (Huh7 cells; 30 μM): significant cytotoxic effect; cytotoxic effect on cell viability vs DMSO control (HepG2 cells; HepG2, 30 μM): significant cytotoxic effect"
CCCn1c(NC(=O)c2cncn2-c2ccc(F)cc2)nc2ccccc21 [compound 3],–,0.6 µM,7.3,4,cytotoxicity in HepG2 cells (HepG2 cells; concentration not given): moderate cytotoxicity
O=C(Nc1cccc2cnccc12)C1CCCN(c2cnccn2)C1 (stereo not drawn) [compound 4],–,3.2 µM,55,33,"IC50 (P. berghei [1]; parasite load): 54.5 µM; effect on liver cell viability (Huh7 cells; concentrations up to 200 μM): neither compound 4 or 5 had any significant effects on cell viability; effect on liver cell viability (HepG2 cells; HepG2, concentrations up to 200 μM): neither compound 4 or 5 had any significant effects on cell viability; IC50 (P. berghei [2]; parasite load): 33.3 µM"
